Source: US20230373930A1, “AMINOIMIDAZOLE FPR2 AGONISTS” (BRISTOL-MYERS SQUIBB COMPANY, priority 2020, published 2023)

Key:
[1] = target: T1, human FPR1 (Homo sapiens, UniProt P21462); test: FPR1 cyclic adenosine monophosphate (cAMP) assay; format: cell-based; conditions: CHO cells overexpressing human FPR1; forskolin 10 μM; inhibition of cAMP production; HTRF; read-out: hFPR1 cAMP2 EC50
T1 sequence (P21462 1-350): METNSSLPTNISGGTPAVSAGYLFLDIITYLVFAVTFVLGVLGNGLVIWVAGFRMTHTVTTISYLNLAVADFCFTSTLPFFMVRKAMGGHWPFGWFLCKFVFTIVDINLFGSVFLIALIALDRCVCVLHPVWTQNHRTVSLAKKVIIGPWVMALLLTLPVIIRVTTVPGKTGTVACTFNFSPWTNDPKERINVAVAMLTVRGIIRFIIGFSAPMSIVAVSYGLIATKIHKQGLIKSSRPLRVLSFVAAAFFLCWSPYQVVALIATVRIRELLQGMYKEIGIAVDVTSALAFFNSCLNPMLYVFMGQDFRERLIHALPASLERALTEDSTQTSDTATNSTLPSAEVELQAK
Experimental: (§1) FPR2 and FPR1 Cyclic Adenosine Monophosphate (cAMP) Assays. A mixture of forskolin (5 μM final for FPR2 or 10 μM final for FPR1) and IBMX (200 μM final) were added to 384-well Proxiplates (Perkin-Elmer) pre-dotted with test compounds in DMSO (1% final) at final concentrations in the range of 0.020 nM to 100 μM. Chinese Hamster Ovary cells (CHO) overexpressing human FPR1 or human FPR2 receptors were cultured in F-12 (Ham's) medium supplemented with 10% qualified FBS, 250 μg/ml zeocin and 300 μg/ml hygromycin (Life Technologies). Reactions were initiated by adding 2,000 human FPR2 cells per well or 4,000 human FPR1 cells per well in Dulbecco's PBS (with calcium and magnesium) (Life Technologies) supplemented with 0.1% BSA (Perkin-Elmer). The reaction mixtures were incubated for 30 min at room temperature. The level of intracellular cAMP was determined using the HTRF HiRange cAMP assay reagent kit (Cisbio) according to manufacturer's instruction. Solutions of cryptate conjugated anti-cAMP and d2 flurorophore-labelled cAMP were made in a supplied lysis buffer separately. Upon completion of the reaction, the cells were lysed with equal volume of the d2-cAMP solution and anti-cAMP solution. After a 1-h room temperature incubation, time-resolved fluorescence intensity was measured using the Envision (Perkin-Elmer) at 400 nm excitation and dual emission at 590 nm and 665 nm. A calibration curve was constructed with an external cAMP standard at concentrations ranging from 1 μM to 0.1 μM by plotting the fluorescent intensity ratio from 665 nm emission to the intensity from the 590 nm emission against cAMP concentrations. The potency and activity of a compound to inhibit cAMP production was then determined by fitting to a 4-parametric logistic equation from a plot of cAMP level versus compound concentrations.

[2] = target: T2, human FPR2 (Homo sapiens, UniProt P25090); test: FPR2 cyclic adenosine monophosphate (cAMP) assay; format: cell-based; conditions: CHO cells overexpressing human FPR2; forskolin 5 μM; inhibition of cAMP production; HTRF; read-out: hFPR2 cAMP2 EC50
T2 sequence (P25090 1-351): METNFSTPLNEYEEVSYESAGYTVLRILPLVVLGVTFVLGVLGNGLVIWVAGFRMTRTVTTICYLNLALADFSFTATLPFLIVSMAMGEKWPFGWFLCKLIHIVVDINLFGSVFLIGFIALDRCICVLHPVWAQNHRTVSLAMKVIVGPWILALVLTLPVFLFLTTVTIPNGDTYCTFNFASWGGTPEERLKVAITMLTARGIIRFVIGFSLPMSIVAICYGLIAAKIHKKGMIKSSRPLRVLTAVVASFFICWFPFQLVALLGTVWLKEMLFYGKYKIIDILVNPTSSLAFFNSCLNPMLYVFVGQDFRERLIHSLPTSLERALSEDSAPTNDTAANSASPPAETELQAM
Experimental: as §1

SMILES: COc1cc(F)c(-n2cc(-c3ccc(OC(F)F)cc3)nc2NC(=O)c2ccc(OC(F)F)cc2)c(F)c1 [Example 7, N-[1-(2,6-Difluoro-4-methoxyphenyl)-4-[4-(difluoromethoxy)phenyl]-1H-imidazol-2-yl]-4-(difluoromethoxy)benzamide]
- EC50 [1]: 190 nM
- EC50 [2]: 33 nM

SMILES: COc1ccc(-n2cc(C(=O)N3CCNCC3)nc2NC(=O)c2ccc(OC(F)F)cc2)cc1 [Example 45, 4-(Difluoromethoxy)-N-[1-(4-methoxyphenyl)-4-(piperazine-1-carbonyl)-1H-imidazol-2-yl]benzamide]
- EC50 [1]: 710 nM
- EC50 [2]: 14 nM

SMILES: COc1cc(F)c(-n2cc(-c3ccc(Cl)c(C)c3)nc2NC(=O)c2ccc(OC(F)F)cc2)c(F)c1 [Example 5, N-[4-(4-Chloro-3-methylphenyl)-1-(2,6-difluoro-4-methoxyphenyl)-1H-imidazol-2-yl]-4-(difluoromethoxy)benzamide]
- EC50 [1]: 140 nM
- EC50 [2]: 47 nM

SMILES: CCOC(=O)c1cn(-c2c(F)cc(OC)cc2F)c(NC(=O)c2ccc(OC(F)F)cc2)n1 [Example 38, Ethyl 1-(2,6-difluoro-4-methoxyphenyl)-2-[4-(difluoromethoxy)benzamido]-1H-imidazole-4-carboxylate]
- EC50 [1]: 620 nM
- EC50 [2]: 15 nM

SMILES: COc1cc(F)c(-n2cc(-c3ccnc(Cl)c3)nc2NC(=O)c2ccc(OC(F)F)cc2)c(F)c1 [Example 34, N-[4-(2-Chloropyridin-4-yl)-1-(2,6-difluoro-4-methoxyphenyl)-1H-imidazol-2-yl]-4-(difluoromethoxy)benzamide]
- EC50 [1]: 120 nM
- EC50 [2]: 16 nM

SMILES: COc1cc(F)c(-n2cc(-c3cccc(C#N)c3)nc2NC(=O)c2ccc(OC(F)F)cc2)c(F)c1 [Example 17, N-[4-(3-Cyanophenyl)-1-(2,6-difluoro-4-methoxyphenyl)-1H-imidazol-2-yl]-4-(difluoromethoxy)benzamide]
- EC50 [1]: 46 nM
- EC50 [2]: 5 nM

SMILES: COc1cc(F)c(-n2cc(C(=O)N3CCC(O)CC3)nc2NC(=O)c2ccc(OC(F)F)cc2)c(F)c1 [Example 52, N-[1-(2,6-Difluoro-4-methoxyphenyl)-4-(4-hydroxypiperidine-1-carbonyl)-1H-imidazol-2-yl]-4-(difluoromethoxy)benzamide]
- EC50 [1]: > 10000 nM
- EC50 [2]: 63 nM

SMILES: COc1cc(F)c(-n2cc(C3CCOCC3)nc2NC(=O)c2ccc(OC(F)F)cc2)c(F)c1 [Example 41, N-[1-(2,6-Difluoro-4-methoxyphenyl)-4-(oxan-4-yl)-1H-imdiazol-2-yl]-4-(difluoromethoxy)benzamide]
- EC50 [1]: 230 nM
- EC50 [2]: 26 nM

SMILES: COc1cc(F)c(-n2cc(-c3ccccc3F)nc2NC(=O)c2ccc(OC(F)F)cc2)c(F)c1 [Example 33, N-[1-(2,6-Difluoro-4-methoxyphenyl)-4-(2-fluorophenyl)-1H-imidazol-2-yl]-4-(difluoromethoxy)benzamide]
- EC50 [1]: 940 nM
- EC50 [2]: 39 nM

SMILES: COc1cc(F)c(-n2cc(-c3ccc(Cl)c(Cl)c3)nc2NC(=O)c2ccc(OC(F)F)cc2)c(F)c1 [Example 18, N-[4-(3,4-Dichlorophenyl)-1-(2,6-difluoro-4-methoxyphenyl)-1H-imidazol-2-yl]-4-(difluoromethoxy)benzamide]
- EC50 [1]: 400 nM
- EC50 [2]: 51 nM

SMILES: COc1ccc(-n2cc(-c3cc4cc(Cl)ccc4o3)nc2NC(=O)c2ccc(OC(F)F)cc2)cc1 [Example 26, N-[4-(5-Chloro-1-benzofuran-2-yl)-1-(4-methoxyphenyl)-1H-imidazol-2-yl]-4-(difluoromethoxy)benzamide]
- EC50 [1]: 400 nM
- EC50 [2]: 72 nM

SMILES: COc1cc(F)c(-n2cc(C(=O)N3CCNC(=O)C3)nc2NC(=O)c2ccc(OC(F)F)cc2)c(F)c1 [Example 58, N-[1-(2,6-Difluoro-4-methoxyphenyl)-4-(3-oxopiperazine-1-carbonyl)-1H-imidazol-2-yl]-4-(difluoromethoxy)benzamide]
- EC50 [1]: 3400 nM
- EC50 [2]: 170 nM

SMILES: COc1cc(F)c(-n2cc(C(=O)N3CCN(C)CC3)nc2NC(=O)c2ccc(OC(F)F)cc2)c(F)c1 [Example 55, N-[1-(2,6-Difluoro-4-methoxyphenyl)-4-(4-methylpiperazine-1-carbonyl)-1H-imidazol-2-yl]-4-(difluoromethoxy)benzamide]
- EC50 [1]: > 10000 nM
- EC50 [2]: 280 nM

SMILES: COc1cc(F)c(-n2cc(-c3ccn[nH]3)nc2NC(=O)c2ccc(OC(F)F)cc2)c(F)c1 [Example 80, N-[1-(2,6-difluoro-4-methoxyphenyl)-4-(1H-pyrazol-5-yl)-1H-imidazol-2-yl]-4-(difluoromethoxy)benzamide]
- EC50 [1]: 500 nM
- EC50 [2]: 59 nM

SMILES: COc1cc(F)c(-n2cc(-c3ccccc3)nc2NC(=O)c2ccc(OC(F)F)cc2)c(F)c1 [Example 1, N-[1-(2,6-Difluoro-4-methoxyphenyl)-4-phenyl-1H-imidazol-2-yl]-4-(difluoromethoxy)benzamide]
- EC50 [1]: 200 nM
- EC50 [2]: 4 nM

SMILES: COc1cc(F)c(-n2cc(C3CNC3)nc2NC(=O)c2ccc(OC(F)F)cc2)c(F)c1 [Example 79, N-[4-(azetidin-3-yl)-1-(2,6-difluoro-4-methoxyphenyl)-1H-imidazol-2-yl]-4-(difluoromethoxy)benzamide]
- EC50 [1]: 4200 nM
- EC50 [2]: 81 nM

SMILES: COc1cc(F)c(-n2cc(C(=O)NC3CCC(O)CC3)nc2NC(=O)c2ccc(OC(F)F)cc2)c(F)c1 (stereo not drawn) [Example 49, 1-(2,6-Difluoro-4-methoxyphenyl)-2-[4-(difluoromethoxy)benzamido]-N-(4-hydroxycyclohexyl)-1H-imidazole-4-carboxamide]
- EC50 [1]: 750 nM
- EC50 [2]: 90 nM

SMILES: COc1ccc(-n2cc(C(F)(F)F)nc2NC(=O)c2ccc(OC(F)F)cc2)cc1 [Example 43, 4-(Difluoromethoxy)-N-[1-(4-methoxyphenyl)-4-(trifluoromethyl)-1H-imidazol-2-yl]benzamide]
- EC50 [1]: 40 nM
- EC50 [2]: 10 nM

SMILES: COc1cc(F)c(-n2cc(Cc3ccccn3)nc2NC(=O)c2ccc(OC(F)F)cc2)c(F)c1 [Example 78, N-[1-(2,6-difluoro-4-methoxyphenyl)-4-[(pyridin-2-yl)methyl]-1H-imidazol-2-yl]-4-(difluoromethoxy)benzamide]
- EC50 [1]: 870 nM
- EC50 [2]: 56 nM

SMILES: COc1cc(F)c(-n2cc(-c3ccc4ccccc4c3)nc2NC(=O)c2ccc(OC(F)F)cc2)c(F)c1 [Example 9, N-[1-(2,6-Difluoro-4-methoxyphenyl)-4-(naphthalen-2-yl)-1H-imidazol-2-yl]-4-(difluoromethoxy)benzamide]
- EC50 [1]: 460 nM
- EC50 [2]: 220 nM

SMILES: COc1cc(F)c(-n2cc(C3CC3)nc2NC(=O)c2ccc(OC(F)F)cc2)c(F)c1 [Example 37, N-[4-Cyclopropyl-1-(2,6-difluoro-4-methoxyphenyl)-1H-imidazol-2-yl]-4-(difluoromethoxy)benzamide]
- EC50 [1]: 800 nM
- EC50 [2]: 16 nM

SMILES: COc1cc(F)c(-n2cc(C3CC(O)C3)nc2NC(=O)c2ccc(OC(F)F)cc2)c(F)c1 (stereo not drawn) [Example 74, N-(1-(2,6-Difluoro-4-methoxyphenyl)-4-(3-hydroxycyclobutyl)-1H-imidazol-2-yl)-4-(difluoromethoxy)benzamide]
- EC50 [1]: 250 nM
- EC50 [2]: 7 nM

SMILES: COc1ccc(-n2cc(C3CCCCC3)nc2NC(=O)c2ccc(OC(F)F)cc2)cc1 [Example 27, N-[4-Cyclohexyl-1-(4-methoxyphenyl)-1H-imidazol-2-yl]-4-(difluoromethoxy)benzamide]
- EC50 [1]: 660 nM
- EC50 [2]: 55 nM

SMILES: COc1cc(F)c(-n2c(NC(=O)c3ccc(OC(F)F)cc3)nc(-c3ccc(Cl)cc3)c2C)c(F)c1 [Example 13, N-[4-(4-Chlorophenyl)-1-(2,6-difluoro-4 methoxyphenyl)-5-methyl-1H-imidazol-2-yl]-4-(difluoromethoxy)benzamide]
- EC50 [1]: 550 nM
- EC50 [2]: 53 nM
